The record followed here is patent US20230133087A1, “ACTIVE COMPOUND COMBINATIONS AND FUNGICIDE COMPOSITIONS COMPRISING THOSE” (priority 2020, published 2023).

Where “and” joins values, the source holds several entries; their conditions need not be identical. Equal values may be shown once.

What all share (format): cell-based
One experiment deals with Cercospora beticola. The experiment in a line: In vitro-test with fungal microorganisms: Cercospora beticola. As to the method:
(§1) The degree of efficacy, expressed in % is denoted. 0% means an efficacy which corresponds to that of the control while an efficacy of 100% means that no disease is observed.
(§2) Wells of 96-well microtiter plates are filled with 30 μl of a preparation of test compound or compound combination in methanol+emulsifier alkylaryl-polyglycol-ether. Thereafter, the solvent is evaporated in a hood. At the next step, into each well 200 μl of liquid growth medium is given, that has been amended with an appropriate concentration of spores or mycelium suspension of the test fungus.
(§3) With the aid of a photometer the extinction in all wells is measured at the wavelength of 600 nm.
(§4) The microtiter plates are incubated for 3 to 7 days at 20° C. and 85% relative humidity. After the incubation inhibition of growth is determined photometrically. Efficacy is calculated in relation to the untreated control, 0% efficacy means fungal growth as high as in untreated control while 100% efficacy means no fungal growth is measured.

The subject of a further experiment is Colletotrichum coccodes. Put plainly: In vitro-test with fungal microorganisms: Colletotrichum coccodes. As to the method: as §1, §2, §3, §4
Another experiment deals with Alternaria alternata. Put plainly: In vitro-test with fungal microorganisms (microtiter plate, photometric growth inhibition): Alternaria alternata. As for the experimental part: as §1, §2, §3, §4
The test system of the next experiment is Cordana musae. Put plainly: In vitro-test with fungal microorganisms: Cordana musae. As to the method:
as §1, §2, §3, §4

The next experiment has as its system Botrytis cinerea. The experiment in a line: In vitro-test with fungal microorganisms: Botrytis cinerea. As to the method:
as §1, §2, §3, §4

Another experiment relates to Diaporthe citri. The experiment in a line: In vitro-test with fungal microorganisms: Diaporthe citri. As for the experimental part:
as §1, §2, §3, §4

In a further experiment the test system is Fusarium culmorum. Put plainly: In vitro-test with fungal microorganisms: Fusarium culmorum. As for the experimental part: as §1, §2, §3, §4
The subject of the next experiment is Parastasonospora nodorum. The experiment in a line: In vitro-test with fungal microorganisms: Parastasonospora nodorum. As to the method:
as §1, §2, §3, §4

Consider `CC(C)c1ccc(Cl)cc1CN(C(=O)c1c(C(F)F)nn(C)c1F)C1CC1` [(2.038) isoflucypram, isoflucypram], for which the efficacy in the experiment with Cercospora beticola (0.008 ppm) is 20%; in the experiment on Cercospora beticola (0.04 ppm) it was 30%; in the experiment with Cercospora beticola (0.2 ppm) it was 0%; with Cercospora beticola (1 ppm), 88%; in the experiment on Colletotrichum coccodes (0.008 ppm), 23%; in the experiment on Colletotrichum coccodes (0.04 ppm) it was 9% and 5%. In addition, the efficacy in the experiment with Colletotrichum coccodes (0.2 ppm) was 14%; with Alternaria alternata (0.008 ppm), 51%; in the experiment with Alternaria alternata (0.2 ppm), 69%; in the experiment with Cordana musae (0.008 ppm) it was 8% and 2%; in the experiment on Cordana musae (0.04 ppm), 0%.
Consider `CO/N=C(/C1=NOCCO1)c1ccccc1Oc1ncnc(Oc2ccccc2Cl)c1F` [(3.012) fluoxastrobin, fluoxastrobin], for which the efficacy was 94% with Cercospora beticola (2 ppm); 0% in the experiment on Colletotrichum coccodes (0.008 ppm); 30% and 15% with Colletotrichum coccodes (0.08 ppm); 49% and 50% and 51% in the experiment with Colletotrichum coccodes (0.4 ppm); 88% and 87% and 82% and 83% in the experiment on Colletotrichum coccodes (2 ppm); 94% and 95% and 96% in the experiment with Colletotrichum coccodes (10 ppm). Moreover, the efficacy in the experiment on Alternaria alternata (2 ppm) is 100%; in the experiment on Cordana musae (2 ppm) it was 77%; in the experiment with Cordana musae (10 ppm), 87%; in the experiment with Botrytis cinerea (0.08 ppm), 15% and 12%; in the experiment on Botrytis cinerea (2 ppm) it was 59% and 52%; with Botrytis cinerea (10 ppm) it was 86% and 83%.
Regarding `Cc1cccc(-n2nnn(C)c2=O)c1COc1ccn(-c2ccc(Cl)cc2)n1` [(3.030) metyltetraprole, metyltetraprole], the efficacy was 36% in the experiment on Colletotrichum coccodes (0.008 ppm); 75% and 73% and 72% with Colletotrichum coccodes (0.4 ppm); 92% and 94% and 82% in the experiment with Colletotrichum coccodes (2 ppm); 100% in the experiment on Colletotrichum coccodes (10 ppm); 92% and 99% in the experiment with Alternaria alternata (2 ppm); 99% with Alternaria alternata (10 ppm). In addition, the efficacy in the experiment on Cordana musae (0.08 ppm) is 65%; in the experiment on Cordana musae (0.4 ppm), 77%; in the experiment on Cordana musae (10 ppm), 96%; with Botrytis cinerea (0.08 ppm), 18%; in the experiment with Botrytis cinerea (0.4 ppm), 30% and 25%; with Botrytis cinerea (10 ppm), 84%.
For the molecule `COC(=O)C(O)(Cn1cncn1)c1ccc(Oc2ccc(Cl)cc2)cc1Cl` (stereo not drawn) [(I-1), Methyl 2-[2-chloro-4-(4-chlorophenoxy)phenyl]-2-hydroxy-3-(1,2,4-triazol-1-yl)propanoate], the efficacy is reported as 99% in the experiment with Diaporthe citri (Table F1, 2.5 ppm); 2% in the experiment with Diaporthe citri (Table F2, 0.02 ppm); 92% in the experiment with Diaporthe citri (Table F2, 0.5 ppm); 98% in the experiment on Diaporthe citri (Table F2, 2.5 ppm); 50% with Cercospora beticola (0.02 ppm); 36% in the experiment on Cercospora beticola (0.1 ppm). Moreover, the efficacy in the experiment on Cercospora beticola (0.5 ppm) was 74%; in the experiment with Cercospora beticola (2.5 ppm), 99%; with Colletotrichum coccodes (0.02 ppm), 0% and 4%; in the experiment with Alternaria alternata (2.5 ppm), 92%; in the experiment on Fusarium culmorum (0.02 ppm), 9%; in the experiment on Fusarium culmorum (0.1 ppm) it was 6% and 0%. For the same molecule, the efficacy in the experiment with Fusarium culmorum (0.5 ppm) is 0%; in the experiment on Botrytis cinerea (2.5 ppm), 62%; in the experiment with Botrytis cinerea (2.5 ppm, with penflufen 1 ppm, metyltetraprole 0.08 ppm), 63%; in the experiment with Parastasonospora nodorum (Table H1, 0.02 ppm), 0%; in the experiment on Parastasonospora nodorum (Table H1, 2.5 ppm), 99%; in the experiment with Parastasonospora nodorum (Table H2, 0.02 ppm) it was 2% and 0% and 3%. In addition, the efficacy in the experiment with Parastasonospora nodorum (Table H2, 2.5 ppm) turned out to be 96%; in the experiment with Parastasonospora nodorum (Table H3, 0.02 ppm) it was 9%.
For the molecule `O=C(NCCc1ncc(C(F)(F)F)cc1Cl)c1ccccc1C(F)(F)F` [fluopyram], the efficacy turned out to be 0% with Diaporthe citri (Table F1, 0.16 ppm); 9% in the experiment with Fusarium culmorum (0.16 ppm); 18% in the experiment on Fusarium culmorum (0.8 ppm); 14% in the experiment on Parastasonospora nodorum (Table H1, 0.16 ppm); 100% with Parastasonospora nodorum (Table H1, 20 ppm).
For the molecule `CO/N=C(/C1=NOCCO1)c1ccccc1Oc1ncnc(Oc2ccccc2Cl)c1F` [fluoxastrobin], the efficacy was 89% in the experiment with Diaporthe citri (Table F1, 0.4 ppm); 98% in the experiment with Diaporthe citri (Table F1, 2 ppm); 66% in the experiment with Diaporthe citri (Table F2, 2 ppm); 7% and 0% with Fusarium culmorum (0.08 ppm); 17% in the experiment with Fusarium culmorum (0.4 ppm); 56% with Fusarium culmorum (10 ppm). Also, the efficacy in the experiment with Cordana musae (0.4 ppm) is reported as 64%; with Cordana musae (2 ppm), 78%; with Cordana musae (10 ppm) it was 78%; in the experiment on Parastasonospora nodorum (Table H1, 0.4 ppm), 77%; with Parastasonospora nodorum (Table H1, 2 ppm), 87%; in the experiment on Parastasonospora nodorum (Table H2, 0.08 ppm), 60%. The efficacy in the experiment with Parastasonospora nodorum (Table H2, 0.4 ppm) is 65%; with Parastasonospora nodorum (Table H2, 2 ppm), 85%; in the experiment with Parastasonospora nodorum (Table H3, 0.08 ppm), 57%; in the experiment with Parastasonospora nodorum (Table H3, 2 ppm) it was 85%; in the experiment with Parastasonospora nodorum (Table H3, 10 ppm), 82%.
As for `CC(C)c1ccc(Cl)cc1CN(C(=O)c1c(C(F)F)nn(C)c1F)C1CC1` [isoflucypram], the efficacy in the experiment on Fusarium culmorum (0.04 ppm) was 0%; in the experiment on Fusarium culmorum (0.2 ppm) it was 11%.
On to `CON=C(C(=O)OC)c1ccccc1CON=C(C)c1cccc(C(F)(F)F)c1` [trifloxystrobin], for which the efficacy was 14% in the experiment on Fusarium culmorum (0.008 ppm); 18% with Fusarium culmorum (0.04 ppm); 41% with Fusarium culmorum (0.2 ppm); 68% with Fusarium culmorum (1 ppm); 73% with Cordana musae (0.2 ppm); 84% in the experiment on Cordana musae (1 ppm). Also, the efficacy in the experiment with Parastasonospora nodorum (Table H1, 0.04 ppm) is 65%; in the experiment on Parastasonospora nodorum (Table H1, 0.2 ppm), 85%; in the experiment with Parastasonospora nodorum (Table H2, 0.008 ppm) it was 44%; in the experiment on Parastasonospora nodorum (Table H2, 0.04 ppm) it was 79%.
Consider inpyrfluxam [(2.027) inpyrfluxam], for which the efficacy was 0% in the experiment with Colletotrichum coccodes (0.008 ppm); 24% in the experiment with Colletotrichum coccodes (0.08 ppm); 0% in the experiment on Colletotrichum coccodes (0.2 ppm); 23% in the experiment on Colletotrichum coccodes (0.4 ppm); 0% in the experiment on Alternaria alternata (0.008 ppm); 41% and 27% in the experiment with Alternaria alternata (0.04 ppm). Also, the efficacy came out at 86% in the experiment with Alternaria alternata (1 ppm); 16% with Cordana musae (0.008 ppm); 0% in the experiment with Cordana musae (0.04 ppm); 6% in the experiment with Cordana musae (0.2 ppm); 0% with Botrytis cinerea (0.008 ppm); 37% with Botrytis cinerea (0.04 ppm). The efficacy in the experiment with Botrytis cinerea (0.08 ppm) is given as 0%.
